Columns and labels:
Pseudomonas aeruginosa [1] = assay: Antibacterial activity against Pseudomonas aeruginosa ATCC 27853 assessed as effect on planktonic growth at 1.37 ug/ml after 20 hrs relative to control; assay type: functional
[2] = system: Staphylococcus epidermidis; assay: Antibacterial activity against Staphylococcus epidermidis ATCC 35547 assessed as effect on planktonic growth at 2.73 ug/ml after 20 hrs relative to control; assay type: functional
Streptococcus mutans [3] = assay: Antibacterial activity against Streptococcus mutans ATCC 25175 assessed as effect on planktonic growth at 0.68 ug/ml after 20 hrs relative to control; assay type: functional
[4] = system: Staphylococcus epidermidis; assay: Antibacterial activity against Staphylococcus epidermidis ATCC 35547 assessed as effect on planktonic growth at 10.9 ug/ml after 20 hrs relative to control; assay type: functional
Staphylococcus aureus [5] = assay: Antibacterial activity against Staphylococcus aureus ATCC 25923 assessed as effect on planktonic growth at 5.5 ug/ml after 20 hrs relative to control; assay type: functional
Streptococcus mutans [6] = assay: Antibacterial activity against Streptococcus mutans ATCC 25175 assessed as effect on planktonic growth at 10.9 ug/ml after 20 hrs relative to control; assay type: functional
Streptococcus mutans [7] = assay: Antibacterial activity against Streptococcus mutans ATCC 25175 assessed as effect on planktonic growth at 87.5 ug/ml after 20 hrs relative to control; assay type: functional
Staphylococcus aureus [8] = assay: Antibacterial activity against Staphylococcus aureus ATCC 25923 assessed as effect on planktonic growth at 87.5 ug/ml after 20 hrs relative to control; assay type: functional
Streptococcus mutans [9] = assay: Antibacterial activity against Streptococcus mutans ATCC 25175 assessed as effect on planktonic growth at 21.9 ug/ml after 20 hrs relative to control; assay type: functional
[10] = system: Staphylococcus epidermidis; assay: Antibacterial activity against Staphylococcus epidermidis ATCC 35547 assessed as effect on planktonic growth at 21.9 ug/ml after 20 hrs relative to control; assay type: functional
[11] = system: Staphylococcus epidermidis; assay: Antibacterial activity against Staphylococcus epidermidis ATCC 35547 assessed as effect on planktonic growth at 43.8 ug/ml after 20 hrs relative to control; assay type: functional
Streptococcus mutans [12] = assay: Antibacterial activity against Streptococcus mutans ATCC 25175 assessed as effect on planktonic growth at 0.17 ug/ml after 20 hrs relative to control; assay type: functional
Staphylococcus aureus [13] = assay: Antibacterial activity against Staphylococcus aureus ATCC 25923 assessed as effect on planktonic growth at 43.8 ug/ml after 20 hrs relative to control; assay type: functional
Pseudomonas aeruginosa [14] = assay: Antibacterial activity against Pseudomonas aeruginosa ATCC 27853 assessed as effect on planktonic growth at 0.68 ug/ml after 20 hrs relative to control; assay type: functional
Staphylococcus aureus [15] = assay: Antibacterial activity against Staphylococcus aureus ATCC 25923 assessed as effect on planktonic growth at 2.73 ug/ml after 20 hrs relative to control; assay type: functional
Pseudomonas aeruginosa [16] = assay: Antibacterial activity against Pseudomonas aeruginosa ATCC 27853 assessed as effect on planktonic growth at 0.17 ug/ml after 20 hrs relative to control; assay type: functional
Streptococcus mutans [17] = assay: Antibacterial activity against Streptococcus mutans ATCC 25175 assessed as effect on planktonic growth at 0.34 ug/ml after 20 hrs relative to control; assay type: functional
Streptococcus mutans [18] = assay: Antibacterial activity against Streptococcus mutans ATCC 25175 assessed as effect on planktonic growth at 1.37 ug/ml after 20 hrs relative to control; assay type: functional
[19] = system: Staphylococcus epidermidis; assay: Antibacterial activity against Staphylococcus epidermidis ATCC 35547 assessed as effect on planktonic growth at 5.5 ug/ml after 20 hrs relative to control; assay type: functional
Pseudomonas aeruginosa [20] = assay: Antibacterial activity against Pseudomonas aeruginosa ATCC 27853 assessed as effect on planktonic growth at 10.9 ug/ml after 20 hrs relative to control; assay type: functional
Pseudomonas aeruginosa [21] = assay: Antibacterial activity against Pseudomonas aeruginosa ATCC 27853 assessed as effect on planktonic growth at 87.5 ug/ml after 20 hrs relative to control; assay type: functional
[22] = system: Staphylococcus epidermidis; assay: Antibacterial activity against Staphylococcus epidermidis ATCC 35547 assessed as effect on planktonic growth at 0.17 ug/ml after 20 hrs relative to control; assay type: functional
Staphylococcus aureus [23] = assay: Antibacterial activity against Staphylococcus aureus ATCC 25923 assessed as effect on planktonic growth at 0.17 ug/ml after 20 hrs relative to control; assay type: functional
Pseudomonas aeruginosa [24] = assay: Antibacterial activity against Pseudomonas aeruginosa ATCC 27853 assessed as inhibition of biofilm formation after 20 hrs by crystal-violet staining method; assay type: functional, organism-based
Streptococcus mutans [25] = assay: Induction of biofilm formation in Streptococcus mutans ATCC 25175 at 44 ug/ml after 20 hrs by crystal-violet staining method relative to control
Staphylococcus aureus [26] = assay: Antibacterial activity against Staphylococcus aureus ATCC 25923 assessed as effect on planktonic growth at 0.34 ug/ml after 20 hrs relative to control; assay type: functional
[27] = system: Staphylococcus epidermidis; assay: Antibacterial activity against Staphylococcus epidermidis ATCC 35547 assessed as effect on planktonic growth at 0.68 ug/ml after 20 hrs relative to control; assay type: functional
Pseudomonas aeruginosa [28] = assay: Antibacterial activity against Pseudomonas aeruginosa ATCC 27853 assessed as effect on planktonic growth at 21.9 ug/ml after 20 hrs relative to control; assay type: functional
Staphylococcus aureus [29] = assay: Antibacterial activity against Staphylococcus aureus ATCC 25923 assessed as effect on planktonic growth at 1.37 ug/ml after 20 hrs relative to control; assay type: functional
[30] = system: Staphylococcus epidermidis; assay: Antibacterial activity against Staphylococcus epidermidis ATCC 35547 assessed as effect on planktonic growth at 0.34 ug/ml after 20 hrs relative to control; assay type: functional
Staphylococcus aureus [31] = assay: Antibacterial activity against Staphylococcus aureus ATCC 25923 assessed as effect on planktonic growth at 0.68 ug/ml after 20 hrs relative to control; assay type: functional
Pseudomonas aeruginosa [32] = assay: Antibacterial activity against Pseudomonas aeruginosa ATCC 27853 assessed as effect on planktonic growth at 2.73 ug/ml after 20 hrs relative to control; assay type: functional
Streptococcus mutans [33] = assay: Antibacterial activity against Streptococcus mutans ATCC 25175 assessed as effect on planktonic growth at 5.5 ug/ml after 20 hrs relative to control; assay type: functional
Streptococcus mutans [34] = assay: Antibacterial activity against Streptococcus mutans ATCC 25175 assessed as effect on planktonic growth at 2.73 ug/ml after 20 hrs relative to control; assay type: functional
Streptococcus mutans [35] = assay: Antibacterial activity against Streptococcus mutans ATCC 25175 assessed as effect on planktonic growth at 43.8 ug/ml after 20 hrs relative to control; assay type: functional
Pseudomonas aeruginosa [36] = assay: Antibacterial activity against Pseudomonas aeruginosa ATCC 27853 assessed as effect on planktonic growth at 43.8 ug/ml after 20 hrs relative to control; assay type: functional
[37] = system: Staphylococcus epidermidis; assay: Antibacterial activity against Staphylococcus epidermidis ATCC 35547 assessed as effect on planktonic growth at 1.37 ug/ml after 20 hrs relative to control; assay type: functional
[38] = system: Staphylococcus epidermidis; assay: Antibacterial activity against Staphylococcus epidermidis ATCC 35547 assessed as inhibition of biofilm formation after 20 hrs by crystal-violet staining method; assay type: functional, organism-based; settings: for IC50: ATCC 35547, 20 h
Pseudomonas aeruginosa [39] = assay: Antibacterial activity against Pseudomonas aeruginosa ATCC 27853 assessed as effect on planktonic growth at 0.34 ug/ml after 20 hrs relative to control; assay type: functional
[40] = system: Staphylococcus epidermidis; assay: Antibacterial activity against Staphylococcus epidermidis ATCC 35547 assessed as effect on planktonic growth at 87.5 ug/ml after 20 hrs relative to control; assay type: functional
Staphylococcus aureus [41] = assay: Antibacterial activity against Staphylococcus aureus ATCC 25923 assessed as effect on planktonic growth at 10.9 ug/ml after 20 hrs relative to control; assay type: functional
Pseudomonas aeruginosa [42] = assay: Antibacterial activity against Pseudomonas aeruginosa ATCC 27853 assessed as effect on planktonic growth at 5.5 ug/ml after 20 hrs relative to control; assay type: functional
Staphylococcus aureus [43] = assay: Antibacterial activity against Staphylococcus aureus ATCC 25923 assessed as effect on planktonic growth at 21.9 ug/ml after 20 hrs relative to control; assay type: functional
Pseudomonas aeruginosa [44] = assay: Induction of biofilm formation in Pseudomonas aeruginosa ATCC 27853 at 87.5 ug/ml after 20 hrs by crystal-violet staining method relative to control; assay type: organism-based

COc1ccc(C)cc1C1=C(Br)C(=O)O/C1=C\c1cccc(Cl)c1
Activity (Pseudomonas aeruginosa [1]): 0.8% | Activity [2]: -4% | Activity (Streptococcus mutans [3]): -5.8% | Activity [4]: -3.1% | Activity (Staphylococcus aureus [5]): 35.4% | Activity (Streptococcus mutans [6]): -2.7% | Activity (Streptococcus mutans [7]): 34.9% | Activity (Staphylococcus aureus [8]): 131% | Activity (Streptococcus mutans [9]): 12.1% | Activity [10]: 8.9% | Activity [11]: 12.7% | Activity (Streptococcus mutans [12]): 10.2% | Activity (Staphylococcus aureus [13]): 66.1% | Activity (Pseudomonas aeruginosa [14]): -0.1% | Activity (Staphylococcus aureus [15]): 46.8% | Activity (Pseudomonas aeruginosa [16]): -3% | Activity (Streptococcus mutans [17]): 9.9% | Activity (Streptococcus mutans [18]): 0% | Activity [19]: 4% | Activity (Pseudomonas aeruginosa [20]): -14% | Activity (Pseudomonas aeruginosa [21]): 7.8% | Activity [22]: 13.2% | Activity (Staphylococcus aureus [23]): 23% | inhibition (Pseudomonas aeruginosa [24]): Dose-dependent effect | IC50 (Pseudomonas aeruginosa [24]; ATCC 27853, 20 h): > 87.5 µg/mL | Activity (Streptococcus mutans [25]): Toxic | Activity (Staphylococcus aureus [26]): 47.5% | Activity [27]: 11.9% | Activity (Pseudomonas aeruginosa [28]): -12.1% | Activity (Staphylococcus aureus [29]): 50.6% | Activity [30]: 10.3% | Activity (Staphylococcus aureus [31]): 52.2% | Activity (Pseudomonas aeruginosa [32]): -4.8% | Activity (Streptococcus mutans [33]): 5.2% | Activity (Streptococcus mutans [34]): 8.2% | Activity (Streptococcus mutans [35]): 19.8% | Activity (Pseudomonas aeruginosa [36]): -8.5% | Activity [37]: 4.9% | inhibition [38]: Dose-dependent effect | IC50 [38]: > 87.5 µg/mL | Activity (Pseudomonas aeruginosa [39]): -4.8% | Activity [40]: 33.8% | Activity (Staphylococcus aureus [41]): 34.9% | Activity (Pseudomonas aeruginosa [42]): -8.9% | Activity (Staphylococcus aureus [43]): 39.3%

COc1cccc(/C=C2\C(c3cc(Cl)ccc3OC)=C(Br)C(=O)N2CC(C)C)c1
Activity (Pseudomonas aeruginosa [1]): -6.6% | Activity [2]: 1.5% | Activity (Pseudomonas aeruginosa [44]): 84.6% | Activity (Streptococcus mutans [3]): -1.7% | Activity [4]: 12.7% | Activity (Staphylococcus aureus [5]): 92.3% | Activity (Streptococcus mutans [6]): 17% | Activity (Streptococcus mutans [7]): 76.4% | Activity (Staphylococcus aureus [8]): 9.8% | Activity (Streptococcus mutans [9]): 14.8% | Activity [10]: 25.4% | Activity [11]: 44.9% | Activity (Streptococcus mutans [12]): 2.2% | Activity (Staphylococcus aureus [13]): 20.4% | Activity (Pseudomonas aeruginosa [14]): 0.3% | Activity (Staphylococcus aureus [15]): 34% | Activity (Pseudomonas aeruginosa [16]): 18% | Activity (Streptococcus mutans [17]): 6.1% | Activity (Streptococcus mutans [18]): -3.9% | Activity [19]: 4.1% | Activity (Pseudomonas aeruginosa [20]): 8.8% | Activity (Pseudomonas aeruginosa [21]): 9.6% | Activity [22]: 0.7% | Activity (Staphylococcus aureus [23]): 45.5% | inhibition (Pseudomonas aeruginosa [24]): Dose-dependent effect | Activity (Staphylococcus aureus [26]): 49.8% | Activity [27]: 0.3% | Activity (Pseudomonas aeruginosa [28]): 19.6% | Activity (Staphylococcus aureus [29]): 36.2% | Activity [30]: 0.4% | Activity (Staphylococcus aureus [31]): 39.1% | Activity (Pseudomonas aeruginosa [32]): -5.3% | Activity (Streptococcus mutans [33]): 8.3% | Activity (Streptococcus mutans [34]): 3.5% | Activity (Streptococcus mutans [35]): 44.1% | Activity (Pseudomonas aeruginosa [36]): 24.2% | Activity [37]: 4.2% | inhibition [38]: Dose-dependent effect | IC50 [38]: > 87.5 µg/mL | Activity (Pseudomonas aeruginosa [39]): 2.9% | Activity [40]: 45.3% | Activity (Staphylococcus aureus [41]): 11.5% | Activity (Pseudomonas aeruginosa [42]): 2.8% | Activity (Staphylococcus aureus [43]): 14%
